Experimental data: patent US12344862B2, “Human intestinal epithelium model and method for preparing same” (KOREA RESEARCH INSTITUTE OF BIOSCIENCE AND BIOTECHNOLOGY, priority 2020, dated 2025)
Each block holds one molecule with its values, some of them ahead of it.

Assays:
in vitro = in vitro ADME, human; conditions: human
Description: (§1) The cells were prepared in the same manner as in Experimental Example 6.1. The functional hIECs and the Caco-2 cell line were washed 3 times with a transport buffer. […] The concentration of each compound in the sample was analyzed using LC-MS/MS. The apparent permeability coefficient was calculated according to the following equation. [formula] In the equation, dQ/dt, A, and C0 represent a transport rate, a surface area of the insert, and an initial concentration of the compound in the donor compartment, respectively. Chromatographic quantification of each compound was performed using an LC-tandem mass spectrometry system equipped with Shimadzu Prominence UPLC system (Shimadzu, Kyoto, Japan) and API 2000 QTRAP mass spectrometer (Applied Biosystems, Foster City, CA, USA). […] Then, an aliquot (10 μl) of the supernatant was injected directly into the LC-MS/MS system. Separation was performed using a Waters XTerra MS C18 column (2.1×50 mm, 5 μm, Milford, MA, USA) with a concentration gradient of 0.1% formic acid in acetonitrile and 0.1% formic acid in water at a flow rate of 0.4 ml/min. Transitions were made as follows to detect the analyte: […]

[1] = tested on: Wnt pathway and the Notch pathway; assay: qPCR of ATOH1, HES1, AXIN2, CTNNB1 during differentiation of hIEC progenitors into functional hIECs; type: cell-based, human; conditions: 2 μM Wnt-059 and 1 mM valproic acid together in hIEC differentiation medium 2; functional vs immature hIECs; FIG. 7
Description: To identify effects of Wnt-059 and valproic acid, which belong to the components of the hIEC differentiation medium 2 in Example 2, on the Wnt pathway and the Notch pathway during differentiation of hIEC progenitors into functional hIECs, expression levels of ATOH1, HES1, AXN2, and CTNNB1 genes in human small intestine (hSI) tissue, immature hIECs, and functional hIECs were checked through qPCR analysis. Here, inactivation of the Wnt pathway and activation of the Notch pathway inhibited differentiation of ISCs into secretory cells. qPCR was performed in the same manner as in Experimental Example 1, and the primers used are shown in Table 3 below.

Caco-2 cell line = assay: in vitro; type: in vitro ADME, human
Description: as §1

functional hIECs = assay: in vitro; type: in vitro ADME, human; conditions: Caco-2
Description: as §1

hPSCs = assay: qPCR of intestinal epithelial marker genes during differentiation of hPSCs into hIEC progenitors; type: cell-based, human; conditions: component of hIEC differentiation medium 1; FIG. 2
Description: In Example 1, to identify effects, on differentiation of the hPSCs into the hIEC progenitors, of R-spondin 1, which is an agonist of Wnt signaling, and insulin in composition of the hIEC differentiation medium 1, expression levels of marker genes related to intestinal epithelial cells were checked through qPCR analysis. Specifically, total RNA and cDNA were prepared using RNeasy kit (Qiagen) and Superscript IV cDNA synthesis kit (Thermo Fisher Scientific Inc.), respectively. qPCR was performed using a 7500 Fast real-time PCR system (Applied Biosystems, Foster City, CA, USA).

Papp A→B at 2 h (in vitro): 6.98 ± 0.66 ×10⁻⁶ cm/s | Papp A→B at 2 h (in vitro; Caco-2): 0.98 ± 0.02 ×10⁻⁶ cm/s
Molecule: CNC(=C[N+](=O)[O-])NCCSCc1ccc(CN(C)C)o1 [ranitidine]

Papp A→B at 2 h (in vitro): 11.1 ± 1.15 ×10⁻⁶ cm/s | Papp A→B at 2 h (in vitro; Caco-2): 36.5 ± 1.09 ×10⁻⁶ cm/s
Molecule: COCCc1ccc(OCC(O)CNC(C)C)cc1 (centres unmarked) [metoprolol]

Fintestine (fraction absorbed in the human intestine) estimated from Papp (Caco-2 cell line): 0.98 | Fintestine (fraction absorbed in the human intestine) estimated from Papp (functional hIECs): 0.78 | Papp A→B at 2 h (in vitro): 11 ± 1.28 ×10⁻⁶ cm/s | Papp A→B at 2 h (in vitro; Caco-2): 32.3 ± 2.61 ×10⁻⁶ cm/s
Molecule: CC(C)NCC(O)COc1cccc2ccccc12 (centres unmarked) [propranolol]

Papp A→B at 2 h (in vitro): 9.82 ± 0.04 ×10⁻⁶ cm/s | Papp A→B at 2 h (in vitro; Caco-2): 36.2 ± 1.49 ×10⁻⁶ cm/s
Molecule: O=C(O)Cc1ccccc1Nc1c(Cl)cccc1Cl [diclofenac]

Second part, the molecule before the results:

Molecule: CCCC(CCC)C(=O)O [valproic acid]
effect on Wnt pathway and Notch pathway (qPCR of ATOH1, AXIN2, CTNNB1, HES1) [1]: inhibited the Wnt pathway and activated the Notch pathway

Molecule: Cc1cc(-c2ccc(CC(=O)Nc3ccc(-c4cccnc4)cc3)cc2)ccn1 [Wnt-059, Wnt C-59]
effect on Wnt pathway and Notch pathway (qPCR of ATOH1, AXIN2, CTNNB1, HES1) [1]: inhibited the Wnt pathway and activated the Notch pathway

Molecule: insulin: hormone secreted from beta cells of the islet of Langerhans; component of hIEC differentiation medium 1
effect on expression of intestinal epithelial marker genes (qPCR) (hPSCs): increased expression of VIL1 and ANPEP

B1: R-spondin 1: secreted protein encoded by Rspo1 gene, can promote Wnt/β catenin signals; agonist of Wnt signaling (protein, UniProt Q2MKA7 21-263, looked up)
R-spondin-1: SRGIKGKRQRRISAEGSQACAKGCELCSEVNGCLKCSPKLFILLERNDIRQVGVCLPSCPPGYFDARNPDMNKCIKCKIEHCEACFSHNFCTKCKEGLYLHKGRCYPACPEGSSAANGTMECSSPAQCEMSEWSPWGPCSKKQQLCGFRRGSEERTRRVLHAPVGDHAACSDTKETRRCTVRRVPCPEGQKRRKGGQGRRENANRNLARKESKEAGAGSRRRKGQQQQQQQGTVGPLTSAGPA
effect on expression of intestinal epithelial marker genes (qPCR) (hPSCs): increased expression of markers of major cell types in the intestinal epithelium
